In one assay the target is JAK2 (Homo sapiens (Human), UniProt O60674). The assay is described as follows: Purified kinase assay (Z'-LYTE), JAK2. Type of assay: biochemical. In outline: (§1)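 Catalytic-domain recombinant kinase with Tyr6 peptide (a separate Tyr6 kit for TYK2) and ATP, 1% DMSO final, reacted 1 h at room temperature. Z′-LYTE FRET read after 1 h protease development (ex 400, em 445/520 nm). Inhibition computed from percent substrate phosphorylation versus no inhibitor; IC50 from 4-parameter logistic fit.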
Chain of JAK2 (O60674 849-1124): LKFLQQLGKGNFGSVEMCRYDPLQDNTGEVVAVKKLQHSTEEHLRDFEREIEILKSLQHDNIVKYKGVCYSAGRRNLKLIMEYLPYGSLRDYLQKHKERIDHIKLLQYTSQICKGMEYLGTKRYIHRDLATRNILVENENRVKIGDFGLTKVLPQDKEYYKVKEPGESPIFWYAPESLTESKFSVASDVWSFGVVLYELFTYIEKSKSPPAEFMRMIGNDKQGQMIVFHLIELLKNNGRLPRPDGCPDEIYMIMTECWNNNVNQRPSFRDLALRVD

In assay [1] the test system is JAK2 (GM-CSF-induced pSTAT5 in TF1 cells). Nature of the assay: GMCSF-induced pSTAT5 formation in TF1 (JAK2 cellular assay). It is filed as cell-based. Conditions: Homo sapiens, TF-1, read-out: TF1/GM-CSF percent inhibition of STAT phosphorylation. The method, then: 100 μl aliquots of TFI (2.5×10^6/ml) cells were pre-treated with various concentrations JAK inhibitors (0.04 to 5 μM, including 0.2 μM and 1 μM) for 1 hour at 37° C. Cells were then stimulated with 2 ng/ml GM-CSF for 10 minutes at 37° C. The reaction was terminated by the addition of 60 μl 16% paraformaldehyde followed by incubation for 10 minutes at room temperature. Cells were washed twice (centrifugation 5 minutes room temperature at 385×g) in PBS followed by re-suspension in −20° C. 50% methanol in PBS and storage at 4° C. overnight. The following day, cells were washed in PBS/BSA and re-suspended in the same buffer containing STAT5 Y694 specific antibody. Following incubation with antibodies, cells were washed and analyzed by flow cytometry (BD Biosciences; FACS Calibur). The gate was set on live cells in the SSC-FSC plot and 10,000 events were collected.
(§2) Percent inhibition of STAT phosphorylation in the cellular assays is provided for the compounds at the given concentrations.

In another assay the target is JAK1 (Homo sapiens (Human), UniProt P23458). Nature of the assay: Purified kinase assay (Z'-LYTE), JAK1. Type of assay: biochemical. Summed up: as §1
Chain of JAK1 (P23458 875-1153): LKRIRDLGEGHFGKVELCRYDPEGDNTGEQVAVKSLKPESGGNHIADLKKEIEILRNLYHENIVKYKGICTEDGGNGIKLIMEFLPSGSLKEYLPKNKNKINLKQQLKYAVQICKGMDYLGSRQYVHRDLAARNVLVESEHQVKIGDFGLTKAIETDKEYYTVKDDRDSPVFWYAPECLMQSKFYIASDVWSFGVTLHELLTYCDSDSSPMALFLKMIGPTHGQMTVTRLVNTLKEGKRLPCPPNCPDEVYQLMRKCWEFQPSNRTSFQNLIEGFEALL
Assay [2] deals with JAK3/JAK1 (IL2-STAT5 in PBMC). Nature of the assay: Intracellular STAT5 phosphorylation following IL2 stimulation of PBMC (JAK3/JAK1 cellular assay). As to conditions: Homo sapiens, read-out: IL2-STAT5 percent inhibition of STAT phosphorylation. It is filed as cell-based. The method, then: Human whole blood was collected into lithium heparin vacutainer tubes from the antecubital vein of human subjects. Peripheral blood mononuclear cells (PBMC) were prepared by layering 10 ml anti-coagulated blood over 5 ml lymphoprep in a 15 ml conical tube and centrifugation for 20 minutes at 400×g in a swinging bucket rotor. The lymphocyte layer was removed, washed twice in tissue culture media (RPMI containing 10% fetal bovine serum) prior to re-suspension in the same media at 2×10^6 cells/ml. 100 μl aliquots of PMBCs were incubated for 1 h at 37° C. with various concentrations of JAK inhibitors prior to stimulation for 15 minutes with 1.5 ng/ml of IL2 or IL4. The reaction was terminated by the addition of 60 μl 16% paraformaldehyde, followed by incubation at room temperature for 10 minutes. Fixed cells were washed twice in PBS, and then re-suspended in −20° C. 50% methanol diluted in PBS and stored at 4° C. overnight. Following permeabilization of the cell membrane in methanol, cells were washed twice in PBS containing 1% BSA and PBMCs were re-suspended in the same buffer containing CD3 and STAT5 Y694 specific antibodies (IL2 stimulations) or CD3, CD14, CD19, and STAT6 Y641 specific antibodies (IL4 stimulations) for 1 hour at room temperature. Cells were then washed and re-suspended in PBS/BSA buffer and assessed by flow cytometry (LSRII; BD Biosciences) for effect of JAK inhibitors on cytokine mediated STAT phosphorylation.
as §2

The next assay addresses TYK2 (Homo sapiens (Human), UniProt P29597). The assay is described as follows: Purified kinase assay (Z'-LYTE), TYK2. Type of assay: biochemical. The method, then:
JAK and TYK2 tyrosine phosphorylation activity is measured using the Z′-LYTE™ Technology developed by Invitrogen Corporation (Carlsbad, Calif.). For JAK1, JAK2 and JAK3 the Z′-LYTE™ Kinase Assay Kit-Tyr6 Peptide (part number PV4122) was used. For TYK2 the Z′-LYTE™ Kinase Assay Kit-Tyr6 Peptide (part number PV3192) was used. The Z′-LYTE™ biochemical assay employs a fluorescence resonance energy transfer (FRET) coupled-enzyme format and is based on the differential sensitivity of phosphorylated and non-phosphorylated peptides to proteolytic cleavage. The assay uses a synthetic peptide substrate that is labeled with a donor fluorophore (coumarin) and an acceptor fluorophore (fluorescein) that make up a FRET pair. In the primary reaction (the Kinase Reaction), the kinase transfers the γ-phosphate of ATP to a single tyrosine residue on the substrate, while the presence of a kinase inhibitor in the primary reaction suppresses phosphorylation. In the secondary reaction (the Development Reaction), a site-specific protease (the Development Reagent) is added. The development buffer quenches the Kinase Reaction, while the protease recognizes and cleaves non-phosphorylated Z′-LYTE™ peptide substrate. Cleavage disrupts FRET between the donor and acceptor fluorophores on the non-phosphorylated substrate, while uncleaved, phosphorylated substrate maintains FRET.
To test the ability of candidate molecules to inhibit JAK tyrosine phosphorylation activity, molecules are reconstituted in 100% DMSO and serially diluted 1:10 in polypropylene v-bottom microtiter plates. The candidate molecules are then diluted 1:25 into kinase buffer and 2.5 μl transferred into duplicate wells of a 384 well low volume black microtiter assay plate (Corning, USA). The final DMSO concentration in the assay is 1%. The kinase reaction contains 2.5 μl of a candidate molecule, 5 μl of catalytic domain recombinant Kinase enzyme+Tyr peptide substrate (Invitrogen, CA) and ATP (Invitrogen, CA). The kinase reaction is allowed to proceed for 1 hour at room temperature. The protease reaction is initiated by the addition of Development Reagent (Invitrogen, CA). After 1 hour incubation at room temperature the fluorescence is measured using a FlexStation plate reader (Molecular Devices, Sunnyvale, Calif.). The reader settings used are as follows: Fluorescence mode, endpoint, top read, excitation 400 nm, emission 445 nm and 520 nm, Auto Cutoff 435 nm and 515 nm, PMT sensitivity high, 6 reads per well Inhibition of JAK activity is calculated as the percent phosphorylation of substrate in the presence of inhibitor compared to the percent phosphorylation of substrate in the absence of inhibitor. IC50's were derived using Xlfit 4.3 (IDBS, UK), 4 parameter logistic model 205: Y=(A+((B−A)/(1+((C/x)^D)))).

The target in the next assay is JAK3 (Homo sapiens (Human), UniProt P52333). The assay is described as follows: Purified kinase assay (Z'-LYTE), JAK3. Type of assay: biochemical. In outline: as §1
Chain of JAK3 (P52333 822-1111): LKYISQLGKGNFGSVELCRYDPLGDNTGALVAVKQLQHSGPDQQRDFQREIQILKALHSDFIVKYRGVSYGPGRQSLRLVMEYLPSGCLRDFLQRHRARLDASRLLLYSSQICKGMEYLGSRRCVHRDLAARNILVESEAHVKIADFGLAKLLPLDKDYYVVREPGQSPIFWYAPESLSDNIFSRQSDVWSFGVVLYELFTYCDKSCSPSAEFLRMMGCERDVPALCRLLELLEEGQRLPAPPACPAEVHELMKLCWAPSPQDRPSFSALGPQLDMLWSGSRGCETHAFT

Like-named read-outs stand apart in the source and are kept apart here.

Chain of TYK2 (P29597 897-1176): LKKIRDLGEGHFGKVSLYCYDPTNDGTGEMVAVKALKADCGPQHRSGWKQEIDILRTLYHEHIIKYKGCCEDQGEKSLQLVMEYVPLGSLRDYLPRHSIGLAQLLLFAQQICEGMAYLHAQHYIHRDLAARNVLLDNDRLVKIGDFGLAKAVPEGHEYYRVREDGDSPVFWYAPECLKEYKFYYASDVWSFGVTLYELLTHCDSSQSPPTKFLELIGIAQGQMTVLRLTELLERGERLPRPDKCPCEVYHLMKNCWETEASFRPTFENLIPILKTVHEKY

With `CC(=O)N1CCN(c2ccc(Nc3cc(NCc4cc(F)cc(F)c4)c(C(N)=O)nn3)cc2)CC1` [Compound 20], the IC50 at JAK2 (Table 1, read-out: JAK2 IC50) is 10 to 100 nM; on JAK2 (Table 2, read-out: JAK2) it was 100 to 1000 nM; on JAK1 (Table 1, read-out: JAK1 IC50), 100 to 1000 nM; at JAK1 (Table 2, read-out: JAK1), > 1000 nM; at TYK2 (Table 1, read-out: Tyk2 IC50), 100 to 1000 nM; at TYK2 (Table 2, read-out: TYK2) it was 100 to 1000 nM. The IC50 on JAK3 (Table 1, read-out: JAK3 IC50) is 1 to 10 nM; at JAK3 (Table 2, read-out: JAK3), 1 to 10 nM. Besides, the inhibition at 0.1 µM in assay [1] amounted to 3%. Further, the inhibition at 1 µM is 2% in assay [1] and 60% in assay [2]. Moreover, the inhibition at 0.2 µM in assay [2] turned out to be 32%.

In the case of `CCC(=O)N1CCN(c2ccc(Nc3cc(NCc4c(F)cccc4F)c(C(N)=O)nn3)cc2)CC1` [Compound 33], the IC50 fell in the range of 10 to 100 nM on JAK2 (Table 1, read-out: JAK2 IC50); 10 to 100 nM at JAK2 (Table 2, read-out: JAK2); 100 to 1000 nM on JAK1 (Table 1, read-out: JAK1 IC50); 100 to 1000 nM at JAK1 (Table 2, read-out: JAK1); 10 to 100 nM at TYK2 (Table 1, read-out: Tyk2 IC50); 10 to 100 nM at TYK2 (Table 2, read-out: TYK2). Also, the IC50 lay within 1 to 10 nM on JAK3 (Table 1, read-out: JAK3 IC50) and 1 to 10 nM at JAK3 (Table 2, read-out: JAK3). Also, the inhibition at 0.1 µM in assay [1] stood at 0%. Further, the figures for the inhibition at 1 µM in assay [1] and in assay [2] were 17% and 53%, respectively. Besides, the inhibition at 0.2 µM in assay [2] was 31%.

For the origin of these results see patent US9834548B2, “Pyridazine compounds as JAK inhibitors” (Portola Pharmaceuticals, Inc., priority 2014, dated 2017).
